This is an account of results in patent US20100162416A1, “Multi-stage stem cell carcinogenesis” (StemLifeLine, Inc., priority 2008, published 2010).

What all share (assay type): cell-based, human
Test [1] has as its system selected clones (05, 07, 11) and parental hESC. The test can be described thus: Drug resistance profile: proliferation rate by BrdU incorporation in the presence of chemotherapeutic reagents. Here is the method: Drug resistance profiles of selected clones were determined for the common classes of chemotherapeutic reagents. Proliferation rate of the clones and parental hESC was measured in the presence of multiple concentrations of 10 different drugs using BrdU incorporation assay. Each drug has been tested in at least three independent experiments, each condition being done in triplicate. The approximate half maximal inhibitory concentration (IC50) was determined for each of the drugs tested. IC50 represents the concentration of a drug that is required for 50% inhibition in vitro.
Response of the selected clones to the following chemotherapeutic reagents was examined. The chemotherapeutic agents were chosen for their wide-spread use and variety with respect to their modes of action: 5-fluorouracil (5-FU), doxorubicin (Doxo), irinotecan (SN-38), taxol, etoposide (VP-16), carmustine (BCNU), methotrexate (MTX), cytarabine (AraC), temozolomide (MTIC) and chlorambucil (CLB). […] Proliferation rate was measured by BrdU incorporation at the end of the drug treatment. All samples were made in triplicates in each of the three independent experiments performed.
Background: Dividing cells build labelled thymidine or BrdU into new DNA.

Test [2] concerns clones 07-B1 and 11-B19. Kind of test: Drug resistance of BCNU-selected high-resistance clones. To be noted: clones selected by increasing concentrations of BCNU; data not shown. Here is the method: Two clones, 07 and 11 were exposed to increasing concentrations of BCNU. The surviving cells were cloned and a number of high-resistance clones two of which, 07-B1 and 11-B19 were isolated. Their drug resistance to BCNU and MTIC was tested.

Test [3] relates to isogenic cloned cell lines derived from one hESC line. The test can be described thus: Resistance of the panel of isogenic cloned cell lines to common chemotherapeutic agents. Conditions: panel of isogenic cloned cell lines with CSC phenotype. From the text: Using one hESC line, a panel of isogenic cloned cell lines has already been generated and banked. […] High resolution karyotype (G-banding), proliferation rate (BrdU incorporation and doubling time), growth factor dependence and expression of CSC/SC markers such as Oct-4, Nanog, CD133, ABCG2, ABCG5 etc) have been examined and the stability of the expressed phenotypes was confirmed.

Test [4] deals with clones 05, 07, 11, isogenic hESC control and isogenic cancer lines TMEC02, TMEC03. The test can be described thus: Salinomycin dose response measured by BrdU incorporation. To be noted: clones 05 and 07 compared with clone 11, isogenic hESC control.

Entries after “also recorded” stand apart in the source; their conditions may differ.

Consider `O=c1[nH]cc(F)c(=O)[nH]1` [5-FU, 5-fluorouracil], for which the “resistance of clone 07” value in test [1] (clone 07 compared with clone MEC-11) is reported as “more resistant”.
Regarding `O=NN(CCCl)C(=O)NCCCl` [BCNU, carmustine], in test [2], the “resistance of clones 07-B1 and 11-B19 relative to parental clones” value is listed as “higher resistance than the parental clones”. Moreover, the “resistance of transformed cell lines to the agent” value (from here on “resistance … to the agent”) in test [3] was “increased resistance”.
Regarding `COc1cccc2c1C(=O)c1c(O)c3c(c(O)c1C2=O)C[C@@](O)(C(=O)CO)C[C@@H]3O[C@H]1C[C@H](N)[C@H](O)[C@H](C)O1` [doxorubicin], the “resistance … to the agent” value in test [3] is “increased resistance”.
Take `CO[C@@]12[C@H](COC(N)=O)C3=C(C(=O)C(C)=C(N)C3=O)N1C[C@@H]1N[C@@H]12` [mitomycin C]: the “effect on proliferation (positive control)” value in test [1] (all cell lines, BrdU incorporation at end of drug treatment) was “induced growth arrest in all cell lines”.
`CC(=O)O[C@H]1C(=O)[C@@]2(C)[C@H]([C@H](OC(=O)c3ccccc3)[C@]3(O)C[C@H](OC(=O)[C@H](O)[C@@H](NC(=O)c4ccccc4)c4ccccc4)C(C)=C1C3(C)C)[C@]1(OC(C)=O)CO[C@@H]1C[C@@H]2O` [paclitaxel]: the “resistance … to the agent” value in test [3] is recorded as “increased resistance”.
For the molecule `CC[C@@H](C(=O)[C@@H](C)[C@@H](O)[C@H](C)[C@@H]1O[C@@H]([C@@H](CC)C(=O)O)CC[C@@H]1C)[C@H]1O[C@]2(C=C[C@@H](O)[C@]3(CC[C@@](C)([C@H]4CC[C@](O)(CC)[C@H](C)O4)O3)O2)[C@H](C)C[C@@H]1C` [salinomycin], the “effect of drug on proliferation of clones 05 and 07” value in test [4] is “most significantly affected; also recorded: significantly more affected”.
